Where two headings read alike, the source gives them in different places.
Columns and labels:
IL-23R = molecular target: T1, IL-23R (Homo sapiens, UniProt Q5VWK5); assay: DB cells IL23R pSTAT3 cell assay (pStat3 HTRF); format: cell-based
T1 sequence (Q5VWK5 24-629): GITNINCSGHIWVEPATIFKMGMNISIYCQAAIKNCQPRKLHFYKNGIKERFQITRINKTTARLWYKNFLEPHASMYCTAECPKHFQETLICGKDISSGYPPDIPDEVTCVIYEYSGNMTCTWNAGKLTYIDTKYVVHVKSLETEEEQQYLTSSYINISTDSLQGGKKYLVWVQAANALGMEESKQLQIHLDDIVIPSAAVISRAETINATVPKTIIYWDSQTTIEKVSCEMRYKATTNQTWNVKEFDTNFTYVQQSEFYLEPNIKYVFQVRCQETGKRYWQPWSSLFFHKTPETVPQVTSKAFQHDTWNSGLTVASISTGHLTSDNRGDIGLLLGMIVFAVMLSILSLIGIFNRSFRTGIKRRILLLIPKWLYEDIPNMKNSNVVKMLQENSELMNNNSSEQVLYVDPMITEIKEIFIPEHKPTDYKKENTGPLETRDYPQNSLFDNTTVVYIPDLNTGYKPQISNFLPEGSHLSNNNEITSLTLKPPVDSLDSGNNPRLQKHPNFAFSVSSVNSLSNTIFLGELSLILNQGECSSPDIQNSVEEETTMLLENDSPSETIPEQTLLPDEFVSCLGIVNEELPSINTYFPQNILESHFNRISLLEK
Method in brief: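 HTRF readout of lysate pSTAT3 (Tyr705) after two-plate processing. Peptide dilution series co-incubated with IL-23 (0.5 nM final) on 5×10E5 IL-23R-expressing DB cells per well, 30 min, 37 °C.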

[1] = Stability in simulated gastric fluid (SGF); format: in vitro ADME; settings: pH=2, 37° C., 20 μM peptide; for half-life at 20 μM: pig (pepsin), simulated gastric fluid (SGF) with porcine pepsin, read-out: SGF t½ (converted); for SGF t½: porcine pepsin
Method: SGF was prepared by adding 20 mg NaCl, 32 mg porcine pepsin (MP Biochemicals, catalog 02102599), and 70 μl HCl to 10 ml water (final pH=2). Aliquots of SGF (0.5 ml each) were pre-warmed at 37° C. To start the reaction, 1 μl of peptide stock solution (10 mM in DMSO) was added to 0.5 ml SGF and thoroughly mixed such that the final peptide concentration was 20 μM. The reactions were incubated at 37° C. with gentle shaking. At each time point (0, 15, 30, 60 min) 50 μl aliquots were removed and added to 200 ul acetonitrile containing 0.1% formic acid to quench the reaction. Samples are stored at 4° C. until the end of the experiment and centrifuged at 10,000 rpm for 5 minutes. Aliquots of the supernatant were removed, diluted 1:1 into distilled water containing internal standard, and analyzed by LCMS/MS. Percent remaining at each timepoint was calculated based on the peak area response ratio of test to compound to internal standard. Time 0 was set to 100%, and all later timepoints were calculated relative to time 0. Half-lives were calculated by fitting to a first-order exponential decay equation using GraphPad.

in vitro [2] = format: in vitro ADME; design: half-life: dose or concentration left out as unconfirmed; settings: pH 6.8, 37° C., § matrix is 100 fold dilution of standard SIF concentration; for half-life: simulated intestinal fluid (SIF) with pancreatin, read-out: SIF t½ (converted); for SIF t½: simulated intestinal fluid, pancreatin
in vitro [3] = settings: both, SD, rat, plasma (EDTA)
NK cells = assay: NK cell based assay (IL-23/IL-18-induced IFNγ, Quantikine ELISA); settings: human primary NK cells, IL-23 at EC50 to EC75 + IL-18 10 ng/mL, IFNγ after 20 to 24 hours
Method: killer (NK) cells, purified from human peripheral blood of healthy donors by negative selection (Miltenyi Biotech, Cat #130-092-657), were cultured in complete media (RPMI 1640 containing […], L-glutamine and penicillin-streptomycin) in the presence of IL-2 (RnD, Cat #202-IL-010/CF) at 25 ng/mL. After 7 days, cells were centrifuged, and resuspended in complete media at IE6 cells/mL. […] After 20 to 24 hours, IFNγ in the supernatant was quantified using Quantikine ELISA (RnD, Cat #DIF50).

in vitro [4] = settings: human, 20% fecal homogenate (supernatant), anaerobic, pH 6.8
in vitro [5] = settings: cynomolgus monkey, 20% fecal homogenate (supernatant), anaerobic, pH 6.8
[6] = 20% cynomolgus monkey fecal homogenate, 37° C., 20 μM
[7] = Table E3, DB cells, IL-23 0.5 nM, 30 minutes at 37° C., read-out: pStat3 HTRF (IC50)

## CC(=O)NCCCC[C@H](NC(=O)C1(NC(=O)[C@H](Cc2ccc3ccccc3c2)NC(=O)[C@H](Cc2ccc(OCCN)cc2)NC(=O)[C@@H]2CSCC[C@H](NC(=O)[C@@H](CCCNC(=N)N)NC(C)=O)C(=O)N[C@@H](CCC(N)=O)C(=O)N[C@@H]([C@@H](C)O)C(=O)N[C@@H](Cc3c[nH]c4c(C)cccc34)C(=O)N[C@@H](CCC(N)=O)C(=O)N2)CCOCC1)C(=O)N[C@@H](CC(N)=O)C(=O)N[C@@H](CC(N)=O)C(N)=O [compound 29]
IL-23R
  IC50: < 1 nM
[1]
  half-life at 20 μM: 1 h
In vitro [2]
  half-life: 21 h
In vitro [3]
  half-life at 20 μM: 3 h

## CC(=O)NCCCC[C@H](NC(=O)[C@](C)(CC(C)C)NC(=O)[C@H](Cc1c[nH]c2cc(Cl)ccc12)NC(=O)[C@H](Cc1ccc(OCCN)cc1)NC(=O)[C@H]1NC(=O)[C@H](CCC(N)=O)NC(=O)[C@H](Cc2c[nH]c3ccccc23)NC(=O)[C@H]([C@@H](C)O)NC(=O)[C@H](CC(N)=O)NC(=O)[C@@H](NC(C)=O)C(C)(C)SSC1(C)C)C(=O)N[C@@H](CC(N)=O)C(=O)N[C@@H](CC(N)=O)C(N)=O [compound 13]
IL-23R
  IC50: 1 to 10 nM
[1]
  SGF t½: 24 h
In vitro [2]
  half-life: 17 h

## CC(=O)NCCCC[C@H](NC(=O)[C@](C)(CC(C)C)NC(=O)[C@H](Cc1ccc2ccccc2c1)NC(=O)[C@H](Cc1ccc(OCCN)cc1)NC(=O)[C@H]1NC(=O)[C@H](CCC(N)=O)NC(=O)[C@H](Cc2c[nH]c3c(C)cccc23)NC(=O)[C@H]([C@@H](C)O)NC(=O)[C@H](CC(N)=O)NC(=O)[C@@H](NC(C)=O)C(C)(C)SSC1(C)C)C(=O)N[C@@H](CC(N)=O)C(=O)NCCC(N)=O [compound 201]
IL-23R; [7]
  IC50: < 1 nM
NK cells
  IC50: < 10 nM
[1]
  half-life at 20 μM: 14 h
In vitro [4]
  half-life at 20 μM: > 24 h
In vitro [5]
  half-life at 20 μM: 19 h
In vitro [3]
  half-life at 20 μM: < 0.3 h

## CC(=O)NCCCC[C@H](NC(=O)[C@](C)(CC(C)C)NC(=O)[C@H](Cc1ccc2ccccc2c1)NC(=O)[C@H](Cc1ccc(OCCN)cc1)NC(=O)[C@H]1NC(=O)[C@H](CCC(N)=O)NC(=O)[C@H](Cc2c[nH]c3c(F)cccc23)NC(=O)[C@H]([C@@H](C)O)NC(=O)[C@H](CC(N)=O)NC(=O)[C@@H](NC(C)=O)C(C)(C)SSC1(C)C)C(=O)N[C@@H](CC(N)=O)C(=O)N[C@@H](CC(N)=O)C(N)=O [compound 8]
IL-23R
  IC50: 10 to 100 nM
[1]
  half-life at 20 μM: 15 h
In vitro [2]
  SIF t½: 24 h

## CC(=O)NCCCC[C@H](NC(=O)C1(NC(=O)[C@H](Cc2ccc3ccccc3c2)NC(=O)[C@H](Cc2ccc(OCCN)cc2)NC(=O)[C@H]2NC(=O)[C@H](CCC(N)=O)NC(=O)[C@H](Cc3c[nH]c4c(C)cccc34)NC(=O)[C@H]([C@@H](C)O)NC(=O)[C@H](CC(N)=O)NC(=O)[C@@H](NC(C)=O)C(C)(C)SSC2(C)C)CCNCC1)C(=O)N[C@@H](CC(N)=O)C(=O)NCCC(N)=O [compound 275]
[6]
  t½: Monkey Feces anaerobic: 8 h

## CC(=O)N[C@H]1CCSC[C@@H](C(=O)N[C@@H](Cc2ccc(OCCN)cc2)C(=O)N[C@@H](Cc2ccc3ccccc3c2)C(=O)NC2(C(=O)N[C@@H](CCC(=O)O)C(=O)N[C@@H](CC(N)=O)C(=O)N[C@@H](CC(N)=O)C(N)=O)CCOCC2)NC(=O)[C@H](CCC(N)=O)NC(=O)[C@H](Cc2c[nH]c3c(C)cccc23)NC(=O)[C@H]([C@@H](C)O)NC(=O)[C@H](CCC(N)=O)NC1=O [compound 28]
IL-23R
  IC50: < 1 nM
[1]
  half-life at 20 μM: 3 h
In vitro [2]
  SIF t½: 24 h
In vitro [4]
  half-life at 20 μM: 1 h
In vitro [5]
  half-life at 20 μM: 5 h

## CC(=O)NCCCC[C@H](NC(=O)[C@](C)(CC(C)C)NC(=O)[C@H](Cc1ccc2ccccc2c1)NC(=O)[C@H](Cc1ccc(OCCN)cc1)NC(=O)[C@H]1NC(=O)[C@H](CCC(N)=O)NC(=O)[C@H](Cc2c[nH]c3c(C)cccc23)NC(=O)[C@H]([C@@H](C)O)NC(=O)[C@H](CC(N)=O)NC(=O)[C@@H](NC(C)=O)C(C)(C)SSC1(C)C)C(=O)N[C@@H](CO)C(=O)NCCC(N)=O [compound 221]
IL-23R; [7]
  IC50: 1 to 10 nM
NK cells
  IC50: < 10 nM
[1]
  half-life at 20 μM: 9 h
In vitro [4]
  half-life at 20 μM: > 24 h
In vitro [5]
  half-life at 20 μM: > 24 h
In vitro [3]
  half-life at 20 μM: 2 h

## CC(=O)NCCCC[C@H](NC(=O)[C@](C)(CC(C)C)NC(=O)[C@H](Cc1ccc2ccccc2c1)NC(=O)[C@H](Cc1ccc(OCCN)cc1)NC(=O)[C@H]1NC(=O)[C@H](CCC(N)=O)NC(=O)[C@H](Cc2c[nH]c3c(C)cccc23)NC(=O)[C@H]([C@@H](C)O)NC(=O)[C@H](CC(N)=O)NC(=O)[C@@H](NC(C)=O)C(C)(C)SSC1(C)C)C(=O)N[C@@H](CC(N)=O)C(=O)N[C@@H](CC(N)=O)C(N)=O [compound 6]
IL-23R
  IC50: < 1 nM
NK cells
  IC50: < 10 nM
[1]
  half-life at 20 μM: 12 h
In vitro [2]
  SIF t½: 24 h
In vitro [4]
  half-life at 20 μM: 17 h
In vitro [5]
  half-life at 20 μM: 4 h
In vitro [3]
  half-life at 20 μM: < 1 h

## CC(=O)NCCCC[C@H](NC(=O)[C@](C)(CC(C)C)NC(=O)[C@H](Cc1ccc2ccccc2c1)NC(=O)[C@H](Cc1ccc(OCCN)cc1)NC(=O)[C@H]1NC(=O)[C@H](CCC(N)=O)NC(=O)[C@H](Cc2c[nH]c3cc(C)ccc23)NC(=O)[C@H]([C@@H](C)O)NC(=O)[C@H](CC(N)=O)NC(=O)[C@@H](NC(C)=O)C(C)(C)SSC1(C)C)C(=O)N[C@@H](CC(N)=O)C(=O)N[C@@H](CC(N)=O)C(N)=O [compound 5]
IL-23R
  IC50: 1 to 10 nM
[1]
  half-life at 20 μM: 12 h
In vitro [2]
  SIF t½: 24 h
In vitro [4]
  half-life at 20 μM: 6 h
In vitro [5]
  half-life at 20 μM: 2 h

## COc1cccc2[nH]cc(C[C@@H]3NC(=O)[C@H]([C@@H](C)O)NC(=O)[C@H](CC(N)=O)NC(=O)[C@@H](NC(C)=O)C(C)(C)SSC(C)(C)[C@@H](C(=O)N[C@@H](Cc4ccc(OCCN)cc4)C(=O)N[C@@H](Cc4ccc5ccccc5c4)C(=O)N[C@@](C)(CC(C)C)C(=O)N[C@@H](CCCCNC(C)=O)C(=O)N[C@@H](CC(N)=O)C(=O)N[C@@H](CC(N)=O)C(N)=O)NC(=O)[C@H](CCC(N)=O)NC3=O)c12 [compound 4]
IL-23R
  IC50: 1 to 10 nM
[1]
  half-life at 20 μM: 9 h
In vitro [2]
  SIF t½: 24 h
In vitro [4]
  half-life at 20 μM: 6 h
In vitro [5]
  half-life at 20 μM: 2 h

## CC(=O)NCCCC[C@H](NC(=O)[C@](C)(CC(C)C)NC(=O)[C@H](Cc1c[nH]c2cc(F)ccc12)NC(=O)[C@H](Cc1ccc(OCCN)cc1)NC(=O)[C@H]1NC(=O)[C@H](CCC(N)=O)NC(=O)[C@H](Cc2c[nH]c3ccccc23)NC(=O)[C@H]([C@@H](C)O)NC(=O)[C@H](CC(N)=O)NC(=O)[C@@H](NC(C)=O)C(C)(C)SSC1(C)C)C(=O)N[C@@H](CC(N)=O)C(=O)N[C@@H](CC(N)=O)C(N)=O [compound 14]
IL-23R
  IC50: 10 to 100 nM
[1]
  SGF t½: 24 h
In vitro [2]
  half-life: 9 h

## CC(=O)NCCCC[C@H](NC(=O)[C@](C)(CC(C)C)NC(=O)[C@H](Cc1ccc2ccccc2c1)NC(=O)[C@H](Cc1ccc(OCCN)cc1)NC(=O)[C@H]1NC(=O)[C@H](CCC(N)=O)NC(=O)[C@H](Cc2c[nH]c3cc(Cl)ccc23)NC(=O)[C@H]([C@@H](C)O)NC(=O)[C@H](CC(N)=O)NC(=O)[C@@H](NC(C)=O)C(C)(C)SSC1(C)C)C(=O)N[C@@H](CC(N)=O)C(=O)N[C@@H](CC(N)=O)C(N)=O [compound 2]
IL-23R
  IC50: 10 to 100 nM
[1]
  half-life at 20 μM: 13 h
In vitro [2]
  SIF t½: 24 h

## CC(=O)NCCCC[C@H](NC(=O)[C@](C)(CC(C)C)NC(=O)[C@H](Cc1ccc2ccccc2c1)NC(=O)[C@H](Cc1ccc(OCCN)cc1)NC(=O)[C@H]1NC(=O)[C@H](CCC(N)=O)NC(=O)[C@H](Cc2c[nH]c3ccc(F)cc23)NC(=O)[C@H]([C@@H](C)O)NC(=O)[C@H](CC(N)=O)NC(=O)[C@@H](NC(C)=O)C(C)(C)SSC1(C)C)C(=O)N[C@@H](CC(N)=O)C(=O)N[C@@H](CC(N)=O)C(N)=O [compound 7]
IL-23R
  IC50: 10 to 100 nM
[1]
  half-life at 20 μM: 12 h
In vitro [2]
  SIF t½: 24 h

Source: patent US20260116921A1, “PEPTIDE INHIBITORS OF INTERLEUKIN-23 RECEPTOR AND THEIR USE TO TREAT INFLAMMATORY DISEASES” (priority 2018, published 2026)
